Patent publication US20150071856A1, “ANTAGONISTIC PEPTIDES FOR FRIZZLED-1 AND FRIZZLED-2” (Universiteit Maastricht, priority 2013, published 2015)
Entries after “also recorded” stand apart in the source; their conditions may differ. Residues, ends and D or L forms follow the SMILES beside them.

Key:
rFzd-1 or -2 = test: TOPflash experiments in CHO and COS-7 cells overexpressing rFzd-1 or -2; format: cell-based, rat
Excerpt: (§1) Three areas of high homology that contained two cysteines are underlined (UM207), (UM208) and (UM206). In FIGS. 9B through 9D, the inhibitory effect of these three peptides on Wnt3a-induced luciferase activity in HEK293-superTOPflash is shown. […] Again, the peptides by themselves had no effect on the luciferase activity.
(§2) For the luciferase experiments not in HEK cells, the cells were additionally transfected with a TOPflash construct, eight TCF/LEF binding sites cloned into the pTA-Luc vector. Luciferase activity was measured using luciferase assay system (Promega, Madison Wis., USA).

infarct rupture = test: Infarct rupture in 12956 mice treated with UM206; format: in vivo; conditions: infarct rupture frequency ˜60%; unpublished observations
Excerpt: Because of the lack of pharmacological tools to intervene in Wnt/Fzd signaling in vivo, only genetic interventions have been reported so far in studies on the role of Wnt signaling in infarct healing. Barandon et al. were the first to show a beneficial effect of overexpression on infarct healing of FrzA, a bovine homologue of soluble frizzled-related protein-1 (sFRP1). They observed a decreased infarct size with elevated numbers of myofibroblasts and increased angiogenesis in the infarcted FrzA transgenic mice (Barandon et al., 2003), which could be confirmed in the present study using an Fzd-1 and -2 antagonist. […] In the mean time, the beneficial effects of sFRP overexpression on infarct healing have been confirmed by Kobayashi et al. (Kobayashi et al., 2009). Taken together, these reports support the observations of the present study and point to a beneficial effect of inhibiting Wnt/Fzd signaling on the wound-healing process after MI.

frizzled-1 (rFzd-1) = target: T1, frizzled-1 (rFzd-1) (Rattus norvegicus, UniProt Q08463); test: Activity assay: luciferase reporter in HEK superTOPflash cells transfected with frizzled-1; format: cell-based
T1 construct: expressed in transfected cells; host or cells: HEK293 superTOPflash (transient, Fugene6, pcDNA3.1/hygro)
Description: (§3) Human embryonic kidney (HEK) cells were used for screening. These cells have a luciferase construct stably transfected into the genome (see FIG. 2A), such that when the frizzled receptor is activated and β-catenin is increased, the luciferase is activated by transcription and light can be measured.
(§4) The peptides were tested by transfecting the frizzled-1 or the frizzled-2 receptor and addition of UM206(S-S) to the cell culture. For testing antagonistic activity, UM206 was added and the natural ligand Wnt3a was added, which is a natural stimulus for the canonical pathway.
(§5) Day 2: Transfection 12-Well Plates • heat Fugene6 and DNA 15 minutes at RT • 2 ml serum-free medium in tube • add 3 μl fugene • add 2 μg DNA • incubate 30 minutes at RT • wash with PBS • add 50 μl transfectiemix • add 1 ml antibiotica-free medium
(§6) Day 3: Add Conditioned Medium or UM206
(§7) Day 4: Luciferase Activity Measurements • remove medium • wash with PBS • add 500 μl ⅕ lysisbuffer • shake for 60 minutes • centrifuge in tube • 20 μl lysaat and 50 μl luciferase in new tube for measurement • vortex • measure
as §1
(§8) To determine the inhibitory constant of UM206-8, HEK293-superTOPflash cells were transfected with either rFzd-1 or -2 and incubated with Wnt3a (10^−9M) in the presence of increasing concentrations of either of the peptides (FIG. 15). For UM206, a biphasic inhibition curve was observed that was best fitted with a two-binding-state model.
(§9) The cell lines were cultured in 75 cm^2 culture flasks (Corning, Schiphol, the Netherlands) in Dulbeco's modified essential medium with L-glutamine (2 mM), 10% fetal calf serum (Invitrogen, Merelbeke, Belgium), and 1% gentamycin (Sigma-Aldrich, Zwijndrecht, The Netherlands). Before starting the experiment, the cell lines were treated with plasmocin 25 μg/ml (Invivogen, Toulose, France) and tested with a mycoalert mycoplasma detection kit (Lonza, Rockland Me., USA). Cells were transiently transfected with Fugene6 (Roche, Indianapolis Ind., USA) with plasmid DNA, pcDNA3.1/hygro (Invitrogen) with frizzled-1/2/4 or Wnts 3a-5a or with pcDNA3.0 (Invitrogen) containing the β-catenin or frizzled-5 sequence. After transfection, the cells were cultured for 24 hours in conditioned medium, collected from the cultured L-cells, L-cells with Wnt3a or 5a (Invitrogen). At the same moment the antagonist was added.

frizzled-2 (rFzd-2) = target: T2, frizzled-2 (rFzd-2) (Rattus norvegicus, UniProt Q08464); test: Activity assay: luciferase reporter in HEK superTOPflash cells transfected with frizzled-2; format: cell-based
T2 construct: expressed in transfected cells; host or cells: HEK293 superTOPflash (transient, Fugene6, pcDNA3.1/hygro)
Description: as §3, §4, §5, §6, §7, §1, §8, §9

hFzd-4 = target: T3, hFzd-4 (Homo sapiens, UniProt Q9ULV1); test: Receptor specificity: luciferase in HEK293 superTOPflash cells overexpressing hFzd-4; format: cell-based; conditions: UM206 1.10^−8 M
T3 construct: expressed in transfected cells; host or cells: HEK293 superTOPflash (transient, Fugene6, pcDNA3.1/hygro)
T3 sequence (Q9ULV1 37-537): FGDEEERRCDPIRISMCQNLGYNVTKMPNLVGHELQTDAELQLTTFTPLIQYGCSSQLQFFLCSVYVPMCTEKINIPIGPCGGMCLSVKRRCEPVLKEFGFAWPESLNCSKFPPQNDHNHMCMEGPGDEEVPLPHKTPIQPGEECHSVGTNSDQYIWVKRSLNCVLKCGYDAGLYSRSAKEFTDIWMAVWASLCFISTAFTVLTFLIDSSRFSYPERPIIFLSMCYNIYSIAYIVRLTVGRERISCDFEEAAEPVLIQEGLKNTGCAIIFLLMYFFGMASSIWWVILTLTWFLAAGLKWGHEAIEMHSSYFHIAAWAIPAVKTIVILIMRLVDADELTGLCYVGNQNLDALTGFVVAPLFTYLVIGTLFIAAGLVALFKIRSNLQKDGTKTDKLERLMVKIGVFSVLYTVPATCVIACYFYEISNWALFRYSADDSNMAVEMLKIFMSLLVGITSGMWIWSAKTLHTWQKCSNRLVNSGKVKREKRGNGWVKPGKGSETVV
Description: In FIG. 3, Panel E, the efficacy of UM206 to block the Wnt3a-induced activation of luciferase activity in HEK293 superTOPflash cells transfected with different Fzds is shown.
as §9

canonical Wnt signaling = test: Activity assay (Example 1): TOPflash luciferase reporter in HEK (HEK293-superTOPflash) cells, receptor not specified; format: cell-based, human
Description: as §3, §4
Transfection and Luciferase Measurement:
Plate cells in 12-well plates
as §5, §6, §7, §1, §9, §2

[1] = Wnt3a-induced luciferase activity, antagonists at 1.10^−9 M

T2 sequence (Q08464 29-570): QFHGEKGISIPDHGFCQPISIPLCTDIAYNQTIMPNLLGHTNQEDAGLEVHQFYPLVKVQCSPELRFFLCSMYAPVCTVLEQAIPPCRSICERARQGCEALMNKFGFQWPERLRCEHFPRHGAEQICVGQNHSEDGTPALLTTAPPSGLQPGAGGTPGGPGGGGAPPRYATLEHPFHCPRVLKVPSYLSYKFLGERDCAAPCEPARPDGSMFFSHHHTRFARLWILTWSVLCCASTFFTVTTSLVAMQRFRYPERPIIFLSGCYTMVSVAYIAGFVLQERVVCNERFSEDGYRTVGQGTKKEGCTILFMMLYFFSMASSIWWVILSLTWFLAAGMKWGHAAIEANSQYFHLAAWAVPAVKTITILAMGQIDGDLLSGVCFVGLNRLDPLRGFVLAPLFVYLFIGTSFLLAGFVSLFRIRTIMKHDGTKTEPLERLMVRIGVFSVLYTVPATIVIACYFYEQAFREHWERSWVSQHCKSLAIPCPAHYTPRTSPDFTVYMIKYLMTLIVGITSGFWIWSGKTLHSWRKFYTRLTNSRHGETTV
T1 sequence (Q08463 69-641): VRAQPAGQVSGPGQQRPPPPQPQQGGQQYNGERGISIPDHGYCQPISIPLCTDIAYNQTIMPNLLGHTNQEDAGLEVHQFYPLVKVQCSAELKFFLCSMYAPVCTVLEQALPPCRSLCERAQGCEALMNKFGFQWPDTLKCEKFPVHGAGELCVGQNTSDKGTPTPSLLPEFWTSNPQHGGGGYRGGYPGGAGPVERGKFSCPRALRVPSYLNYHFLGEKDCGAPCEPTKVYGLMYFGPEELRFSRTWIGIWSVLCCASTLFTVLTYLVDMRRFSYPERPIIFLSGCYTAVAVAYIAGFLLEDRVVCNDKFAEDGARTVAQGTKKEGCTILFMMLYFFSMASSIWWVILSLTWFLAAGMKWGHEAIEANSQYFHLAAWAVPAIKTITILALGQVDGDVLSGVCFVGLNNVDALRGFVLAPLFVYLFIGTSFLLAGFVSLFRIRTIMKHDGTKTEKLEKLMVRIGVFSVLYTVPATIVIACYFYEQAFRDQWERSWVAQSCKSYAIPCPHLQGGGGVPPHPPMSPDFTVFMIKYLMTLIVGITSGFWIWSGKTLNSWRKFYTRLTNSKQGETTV

CSCC[C@H](NC(=O)CNC(=O)[C@H](CCC(=O)O)NC(=O)[C@H](CO)NC(=O)[C@@H](NC(=O)[C@H](CCCCN)NC(=O)[C@H](CC(N)=O)NC(=O)[C@H](CS)NC(C)=O)[C@@H](C)O)C(=O)N[C@@H](CC(=O)O)C(=O)NCC(=O)N[C@@H](CS)C(=O)N[C@@H](CCC(=O)O)C(=O)N[C@@H](CC(C)C)C(N)=O [UM206, Ac-Cys-Asn-Lys-Thr-Ser-Glu-Gly-Met-Asp-Gly-Cys-Glu-Leu-NH2] (Ac-CNKTSEGMDGCEL-NH2)
inhibition of Wnt3a-induced TOPflash activation in CHO and COS-7 cells (rFzd-1 or -2): can selectively block canonical Wnt/Fzd-1/2 signaling | number of ruptured infarcts (infarct rupture): did not reduce the number of ruptured infarcts | % of inhibition for Fzd-1 (frizzled-1 (rFzd-1); [1]): 72.15% | block of Wnt3a-induced luciferase activity, rFzd-1 (frizzled-1 (rFzd-1); peptide 1.10^−8 M): blocked almost completely; also recorded: abolished the induction of luciferase activity almost completely | selectivity frizzled-2 over frizzled-1 (frizzled-2 (rFzd-2)): slightly more selective for frizzled-2 over frizzled-1 | % of inhibition for Fzd-2 (frizzled-2 (rFzd-2); [1]): 75.06% | block of Wnt3a-induced luciferase activity, rFzd-2 (frizzled-2 (rFzd-2); peptide 1.10^−8 M): blocked almost completely; also recorded: abolished the induction of luciferase activity almost completely | effect on Wnt3a-induced luciferase activity, frizzled-4 (hFzd-4): no effect | IC50 (canonical Wnt signaling): in the nanomolar range | activity on the frizzled receptor: antagonist or agonist (canonical Wnt signaling; model of Example 1): very potent antagonist; also recorded: very potent inhibitor of the canonical Wnt signaling | effect of the peptide by itself on luciferase activity (canonical Wnt signaling; without Wnt3a): none of the three peptides by itself could induce an increase in luciferase activity; also recorded: no effect
